System: U-937/GTB
Test: Cytotoxicity against human U937/GTB cells by fluorometric microculture cytotoxicity assay
Type: functional, cell-based

Compound | IC50
CC[C@@H](C)[C@@H]1NC(=O)[C@@H]2CSSC[C@@H]3NC(=O)[C@H](C(C)C)NC(=O)[C@H](CCCCN)NC(=O)[C@H](CC(N)=O)NC(=O)[C@@H](CCCCN)NC(=O)[C@@H]4CSSC[C@H](NC(=O)[C@H](CO)NC(=O)[C@H](CCC(=O)O)NC(=O)CNC(=O)[C@H](CSSC[C@H](NC(=O)CNC(=O)[C@H](CC(C)C)NC(=O)[C@H](C(C)C)NC(=O)[C@H](CO)NC(=O)[C@H](CO)NC1=O)C(=O)N[C@@H](CO)C(=O)N4)NC(=O)[C@@H]1CCCN1C(=O)[C@H]([C@H](C)CC)NC(=O)[C@H](C(C)C)NC(=O)CNC(=O)[C@H](CC(=O)O)NC(=O)[C@H](CCCNC(=N)N)NC(=O)[C@H](Cc1ccc(O)cc1)NC3=O)C(=O)N[C@@H](C(C)C)C(=O)N[C@@H](Cc1ccccc1)C(=O)N[C@@H]([C@@H](C)CC)C(=O)N1CCC[C@H]1C(=O)N2 | 3.5 µM
CC[C@H](C)[C@@H]1NC(=O)CNC(=O)[C@@H](CC(N)=O)NC(=O)[C@H](Cc2ccccc2)NC(=O)[C@H](Cc2ccc(O)cc2)NC(=O)[C@@H]2CSSC[C@@H]3NC(=O)CNC(=O)[C@H](CC(C)C)NC(=O)[C@H](Cc4ccccc4)NC(=O)[C@H](C(C)C)NC(=O)[C@H]4CSSC[C@H](NC(=O)[C@H](CO)NC(=O)[C@H](CSSC[C@H](NC(=O)[C@H](C)NC1=O)C(=O)NCC(=O)N[C@@H](CCC(=O)O)C(=O)N[C@@H](CO)C(=O)N4)NC(=O)CNC(=O)[C@@H]1CCCN1C(=O)[C@H]([C@@H](C)CC)NC(=O)[C@H](Cc1ccccc1)NC3=O)C(=O)N[C@@H](CCCCN)C(=O)N[C@@H](CO)C(=O)N[C@@H](CCCCN)C(=O)N[C@@H](C(C)C)C(=O)N2 [PSYLE A] | 26 µM
